Experimental data from US8022102B2, “Unsaturated tetracyclic tetrahydrofuran derivatives” (Janssen Pharmaceutica, NV, priority 2004, dated 2011).
Read-outs that look alike come from different tables or passages of the source.

Tests used:
[1] = molecular target: T1, human Dopamine D2L receptor (Homo sapiens, UniProt P14416); assay: In vitro binding affinity for human D2L receptor ([3H]Spiperone)
T1 construct: expressed in transfected cells; host or cells: CHO cells
Experimental: Frozen membranes of human Dopamine D2L receptor-transfected CHO cells were thawed, briefly homogenised using an Ultra-Turrax T25 homogeniser and diluted in Tris-HCl assay buffer containing NaCl, CaCl2, MgCl2, KCl (50, 120, 2, 1, and 5 mM respectively, adjusted to pH 7.7 with HCl) to an appropriate protein concentration optimised for specific and non-specific binding. Radioligand [^3H]Spiperone (NEN, specific activity ˜70 Ci/mmol) was diluted in assay buffer at a concentration of 2 nmol/L. Prepared radioligand (50 μl), along with 50 μl of either the 10% DMSO control, Butaclamol (10^−6 mol/l final concentration), or compound of interest, was then incubated (30 min, 37° C.) with 400 μl of the prepared membrane solution. Membrane-bound activity was filtered through a Packard Filtermate harvester onto GF/B Unifilterplates and washed with ice-cold Tris-HCl buffer (50 mM; pH 7.7; 6×0.5 ml). Filters were allowed to dry before adding scintillation fluid and counting in a Topcount scintillation counter. Percentage specific bound and competition binding curves were calculated using S-Plus software (Insightful).

[2] = molecular target: T2, human cloned 5-HT2C receptor (Homo sapiens, UniProt P28335); assay: In vitro binding affinity for 5-HT2C receptor (radioligand binding)
T2 construct: expressed in transfected cells; host or cells: CHO cells
T2 sequence (P28335 33-458): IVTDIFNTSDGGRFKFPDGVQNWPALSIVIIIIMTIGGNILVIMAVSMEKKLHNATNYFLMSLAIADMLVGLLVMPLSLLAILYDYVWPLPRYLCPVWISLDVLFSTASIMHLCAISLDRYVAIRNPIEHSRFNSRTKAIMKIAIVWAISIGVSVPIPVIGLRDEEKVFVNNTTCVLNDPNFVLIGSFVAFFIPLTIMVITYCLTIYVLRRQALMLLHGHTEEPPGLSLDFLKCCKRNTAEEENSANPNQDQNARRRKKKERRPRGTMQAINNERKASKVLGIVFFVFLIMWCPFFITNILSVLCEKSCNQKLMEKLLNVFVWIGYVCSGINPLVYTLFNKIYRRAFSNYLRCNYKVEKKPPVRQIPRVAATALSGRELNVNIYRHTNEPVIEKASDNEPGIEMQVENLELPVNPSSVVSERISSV
Experimental: (§1) During the incubation, the radioligands bind to the receptor. When equilibrium of binding is reached, the receptor bound radioactivity is separated from the non-bound radioactivity, and the receptor bound activity is counted. The interaction of the test compounds with the receptors is assessed in competition binding experiments. Various concentrations of the test compound are added to the incubation mixture containing the tissue preparation and the radioligand. Binding of the radioligand will be inhibited by the test compound in proportion to its binding affinity and its concentration.

[3] = molecular target: T3, human cloned 5-HT2A receptor (Homo sapiens, UniProt P28223); assay: In vitro binding affinity for 5-HT2A receptor (radioligand binding)
T3 construct: expressed in transfected cells; host or cells: L929 cells
T3 sequence (P28223 whole entry): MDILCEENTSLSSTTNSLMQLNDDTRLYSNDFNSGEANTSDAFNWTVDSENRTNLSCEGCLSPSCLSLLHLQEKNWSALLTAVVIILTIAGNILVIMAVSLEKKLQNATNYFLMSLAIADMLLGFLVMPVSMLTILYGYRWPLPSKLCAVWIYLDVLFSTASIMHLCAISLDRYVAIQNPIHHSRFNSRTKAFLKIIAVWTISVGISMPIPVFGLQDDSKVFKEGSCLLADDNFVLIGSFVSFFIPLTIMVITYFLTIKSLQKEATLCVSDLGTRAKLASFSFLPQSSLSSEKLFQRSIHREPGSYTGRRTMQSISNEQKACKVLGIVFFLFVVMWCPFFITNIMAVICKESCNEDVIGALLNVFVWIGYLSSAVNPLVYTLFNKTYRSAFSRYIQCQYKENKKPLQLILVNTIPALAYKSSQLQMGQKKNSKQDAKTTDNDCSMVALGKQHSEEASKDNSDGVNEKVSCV
Experimental: as §1, with “concentration. The affinities of the compounds for the 5-HT2 receptors were measured by means of radioligand binding studies conducted with: (a) human cloned 5-HT2A receptor, expressed in L929 cells using [^125I]R91150 as radioligand and (b) human cloned 5-HT2C receptor, expressed in CHO cells using [^3H]mesulergine as radioligand.” for “concentration.”

NET = molecular target: T4, NET (Rattus norvegicus, UniProt Q9WTR4); assay: In vitro determination of NET reuptake inhibition ([3H]Nixosetine binding, rat brain cortex)
T4 construct: Cortex from rat brain was collected and homogenised; from tissue; host or cells: rat brain cortex
T4 sequence (Q9WTR4 1-597): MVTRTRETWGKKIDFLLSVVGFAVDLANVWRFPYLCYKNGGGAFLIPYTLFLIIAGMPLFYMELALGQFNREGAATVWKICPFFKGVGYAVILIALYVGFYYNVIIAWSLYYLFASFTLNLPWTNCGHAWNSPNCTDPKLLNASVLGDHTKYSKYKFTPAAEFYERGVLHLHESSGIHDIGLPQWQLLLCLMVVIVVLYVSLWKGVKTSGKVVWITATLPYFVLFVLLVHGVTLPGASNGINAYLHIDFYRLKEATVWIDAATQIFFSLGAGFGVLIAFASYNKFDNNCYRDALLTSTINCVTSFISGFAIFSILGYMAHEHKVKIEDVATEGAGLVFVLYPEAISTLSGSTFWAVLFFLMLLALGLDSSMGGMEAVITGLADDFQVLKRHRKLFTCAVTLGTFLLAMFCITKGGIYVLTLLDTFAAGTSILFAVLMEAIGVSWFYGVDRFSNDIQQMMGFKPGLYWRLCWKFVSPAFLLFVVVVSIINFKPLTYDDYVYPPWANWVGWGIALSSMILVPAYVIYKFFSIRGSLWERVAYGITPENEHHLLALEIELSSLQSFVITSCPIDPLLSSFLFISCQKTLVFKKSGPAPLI
Experimental: Cortex from rat brain was collected and homogenised using an Ultra-Turrax T25 and a Dual homogeniser in ice-cold homogenising buffer containing Tris, NaCl and KCl (50 mM, 120 mM and 5 mM, respectively, pH 7.4) prior to dilution to an appropriate protein concentration optimised for specific and non-specific binding. […] Membrane-bound activity was detected by filtration through a Packard Filtermate harvester onto GF/B Unifilterplates, washed with ice-cold Tris-HCl buffer, containing NaCl and KCl (50 mM, 120 mM and 4 mM; pH 7.4; 6×0.5 ml). Filters were allowed to dry for 24 h before adding scintillation fluid. Scintillation fluid was allowed to saturate filters for 24 h before counting in a Topcount scintillation counter. Percentage specific bound and competition binding curves were calculated using S-Plus software (Insightful).

[4] = human D2L receptor-transfected CHO cell membranes, [3H]Spiperone, read-out: h-D2L (converted)
[5] = human cloned 5-HT2C receptor, radioligand binding, read-out: h-5HT2C (converted)
[6] = human cloned 5-HT2A receptor, radioligand binding, read-out: h-5HT2A (converted)
[7] = rat brain cortex, [3H]Nixosetine, read-out: NET Reuptake Inhibition (converted)
[8] = h-D2L, human D2L receptor-transfected CHO cell membranes, [3H]Spiperone
[9] = h-5HT2C, human cloned 5-HT2C receptor, radioligand binding
[10] = h-5HT2A, human cloned 5-HT2A receptor, radioligand binding
[11] = NET Reuptake Inhibition, rat brain cortex, [3H]Nixosetine

T1 sequence (P14416 whole entry): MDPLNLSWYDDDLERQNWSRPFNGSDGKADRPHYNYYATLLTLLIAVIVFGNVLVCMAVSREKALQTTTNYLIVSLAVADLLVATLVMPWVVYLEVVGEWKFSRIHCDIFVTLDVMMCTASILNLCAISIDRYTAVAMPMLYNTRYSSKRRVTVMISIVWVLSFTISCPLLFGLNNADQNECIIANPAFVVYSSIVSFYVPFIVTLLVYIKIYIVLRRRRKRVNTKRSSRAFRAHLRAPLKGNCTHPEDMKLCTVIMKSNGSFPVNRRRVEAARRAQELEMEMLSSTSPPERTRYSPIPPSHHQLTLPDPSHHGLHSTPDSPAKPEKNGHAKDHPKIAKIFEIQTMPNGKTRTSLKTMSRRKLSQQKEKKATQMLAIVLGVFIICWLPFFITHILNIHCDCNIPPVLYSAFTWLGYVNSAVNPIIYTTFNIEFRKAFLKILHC

Structure (SMILES)	IC50 [1, 4]	IC50 [2, 5]	IC50 [3, 6]	IC50 (NET; [7])	also measured
CN(C/C=C/c1ccccc1)C[C@H]1CC2=C(O1)c1cc(F)ccc1Cc1ccccc12 [Compound 110]					IC50 ([1]; h-D2L): 158 nM; IC50 ([2]; h-5HT2C): 5.01 nM; IC50 ([3]; h-5HT2A): 12.6 nM; IC50 (NET; NET Reuptake Inhibition): 1000 nM
CNC[C@H]1CC2=C(O1)c1cc(F)ccc1Cc1ccccc12 [Compound 3]	398 nM	6.31 nM	6.31 nM	15.8 nM	
O=C(Oc1ccccc1)N1CCN(CC2CC3=C(O2)c2cc(F)ccc2Cc2ccccc23)CC1 (stereo not drawn) [Compound 65]					IC50 [1, 8]: 1000 nM; IC50 [2, 9]: 126 nM; IC50 [3, 10]: 50.1 nM; IC50 (NET; [11]): 3160 nM
CNCC1CC2=C(O1)c1ccccc1C(C)c1ccccc12 (stereo not drawn) [Compound 10]	1580 nM	25.1 nM		50.1 nM	
CCNCC1CC2=C(O1)c1cc(F)ccc1Cc1ccccc12 (single isomer, unassigned) [Compound 16]	316 nM	12.6 nM		158 nM	
CN(C)CC1CC2=C(O1)c1ccccc1N(C)c1ccccc12 (stereo not drawn) [Compound 29]	6310 nM	126 nM	316 nM	79.4 nM	
CN(C)CCC1CC2=C(O1)c1cc(F)ccc1Cc1ccccc12 (stereo not drawn) [Compound 137]	1580 nM	3.16 nM	12.6 nM	158 nM	
CN(C)C1CCN(CC2CC3=C(O2)c2cc(F)ccc2Cc2ccccc23)C1 (stereo not drawn) [Compound 35]	39.8 nM	15.8 nM		> 10000 nM	
CCS(=O)(=O)N1CCN(CC2CC3=C(O2)c2cc(F)ccc2Oc2ccccc23)CC1 (stereo not drawn) [Compound 47]	1260 nM	200 nM	158 nM	398 nM	
COc1ccc(OC(=O)N2CCN(CC3CC4=C(O3)c3cc(F)ccc3Oc3ccccc34)CC2)cc1 (stereo not drawn) [Compound 68]					IC50 [1, 8]: 794 nM; IC50 [2, 9]: 251 nM; IC50 [3, 10]: 63.1 nM; IC50 (NET; [11]): 1580 nM
O=C(Oc1ccccc1)N1CCN(CC2CC3=C(O2)c2cc(F)ccc2Oc2ccccc23)CC1 (stereo not drawn) [Compound 66]					IC50 [1, 8]: 794 nM; IC50 [2, 9]: 316 nM; IC50 [3, 10]: 126 nM; IC50 (NET; [11]): 1260 nM
CN(C)CC1CC2=C(O1)c1cc(Br)ccc1Cc1ccccc12 (stereo not drawn) [Compound 21]	15.8 nM	0.794 nM		251 nM	
CCS(=O)(=O)N1CCN(CC2CC3=C(O2)c2cc(F)ccc2Cc2ccccc23)CC1 (stereo not drawn) [Compound 46]	501 nM	200 nM		> 10000 nM	
CCNCC1CC2=C(O1)c1cc(Br)ccc1Cc1ccccc12 (stereo not drawn) [Compound 17]	25.1 nM	1.26 nM		100 nM	
CS(=O)(=O)N1CCN(CC2CC3=C(O2)c2cc(F)ccc2Cc2ccccc23)CC1 (stereo not drawn) [Compound 44]	158 nM	50.1 nM		> 10000 nM	
CNCC1CC2=C(O1)c1cc(F)ccc1C(C)c1ccccc12 (stereo not drawn) [Compound 8]	2000 nM	10 nM	31.6 nM		
OCCNCC1CC2=C(O1)c1cc(Br)ccc1Cc1ccccc12 (stereo not drawn) [Compound 20]	31.6 nM	1.58 nM		501 nM	
COC(=O)CC(=O)N(C)C[C@H]1CC2=C(O1)c1cc(F)ccc1Cc1ccccc12 [Compound 112]		63.1 nM	200 nM	7940 nM	
CCNCC1CC2=C(O1)c1cc(F)ccc1Cc1ccccc12 (single isomer, unassigned) [Compound 15]	39.8 nM	0.794 nM		3.16 nM	

The next lines start with results.

IC50 [1, 4]	IC50 [2, 5]	IC50 [3, 6]	IC50 (NET; [7])	Structure (SMILES)	also measured
3160 nM	12.6 nM	15.8 nM	398 nM	CN(C/C=C/C(=O)O)C[C@H]1CC2=C(O1)c1cc(F)ccc1Cc1ccccc12 [Compound 109]	
1580 nM	158 nM		1580 nM	O=C(C1CC1)N1CCN(CC2CC3=C(O2)c2cc(F)ccc2Oc2ccccc23)CC1 (stereo not drawn) [Compound 58]	
	3.98 nM	10 nM	63.1 nM	CNCC1CC2=C(O1)c1ccccc1Cc1cccc(F)c12 (stereo not drawn) [Compound 132]	
251 nM	39.8 nM		> 10000 nM	O=C(Nc1ccc(F)cc1)N1CCN(CC2CC3=C(O2)c2cc(F)ccc2Oc2ccccc23)CC1 (stereo not drawn) [Compound 86]	
1000 nM	79.4 nM	39.8 nM		O=C(NC1CCCCC1)N1CCN(CC2CC3=C(O2)c2cc(F)ccc2Oc2ccccc23)CC1 (stereo not drawn) [Compound 80]	
501 nM	31.6 nM	6.31 nM		COc1ccc(NC(=O)N2CCN(CC3CC4=C(O3)c3cc(F)ccc3Oc3ccccc34)CC2)cc1 (stereo not drawn) [Compound 90]	
50.1 nM	50.1 nM		> 10000 nM	Fc1ccc2c(c1)C1=C(CC(CN3CCC4(CC3)OCCO4)O1)c1ccccc1C2 (stereo not drawn) [Compound 39]	
2 nM	1.26 nM	0.316 nM		OCCC1CCN(CC2CC3=C(O2)c2cc(F)ccc2Cc2ccccc23)CC1 (stereo not drawn) [Compound 38]	
2040 nM		25.1 nM	316 nM	CNCC1CC2=C(O1)c1ccccc1Cc1ccc(C#N)cc12 (stereo not drawn) [Compound 133]	
39.8 nM	0.794 nM	0.794 nM		OC1CCN(CC2CC3=C(O2)c2cc(F)ccc2Cc2ccccc23)C1 (stereo not drawn) [Compound 33]	
794 nM	10 nM	50.1 nM		CN(CC(=O)Nc1ccccc1)C[C@H]1CC2=C(O1)c1cc(F)ccc1Cc1ccccc12 [Compound 118]	
2000 nM	79.4 nM		1580 nM	COC(=O)CC(=O)N1CCN(CC2CC3=C(O2)c2cc(F)ccc2Oc2ccccc23)CC1 (stereo not drawn) [Compound 60]	
200 nM	20 nM	10 nM		CCOC(=O)N1CCN(CC2CC3=C(O2)c2cc(F)ccc2Cc2ccccc23)CC1 (stereo not drawn) [Compound 61]	
7940 nM	25.1 nM	31.6 nM		COc1ccccc1NC(=O)CN(C)C[C@H]1CC2=C(O1)c1cc(F)ccc1Cc1ccccc12 [Compound 119]	
> 10000 nM	31.6 nM	6.31 nM		COc1ccccc1NC[C@@H]1CC2=C(O1)c1cc(F)ccc1Cc1ccccc12 [Compound 106]	
251 nM	100 nM	12.6 nM		COc1ccc(C(=O)N2CCN(CC3CC4=C(O3)c3cc(F)ccc3Oc3ccccc34)CC2)cc1 (stereo not drawn) [Compound 74]	
1260 nM	100 nM	100 nM		CCCC(=O)N1CCN(CC2CC3=C(O2)c2cc(F)ccc2Oc2ccccc23)CC1 (stereo not drawn) [Compound 56]	
79.4 nM	20 nM		1580 nM	Fc1ccc2c(c1)C1=C(CC(CN3CCOCC3)O1)c1ccccc1C2 (stereo not drawn) [Compound 43]	
2510 nM	2 nM	10 nM		CN(CC(=O)N(C)C)C[C@H]1CC2=C(O1)c1cc(F)ccc1Cc1ccccc12 [Compound 117]	
